Results as given in ChEMBL document CHEMBL1137000, “Synthesis and antibacterial activity of some novel imidazole-based dicationic quinolinophanes” (2009).
≈ marks a conversion by molar mass, not a printed value.

Tests used:
Type in all cases: functional
Pseudomonas aeruginosa = assay: Antibacterial activity against Pseudomonas aeruginosa after 48 hrs by agar well diffusion method
Shigella sp. = assay: Antibacterial activity against Shigella sp. after 48 hrs by agar well diffusion method
Staphylococcus aureus = assay: Antibacterial activity against Staphylococcus aureus after 48 hrs by agar well diffusion method
Klebsiella pneumoniae = assay: Antibacterial activity against Klebsiella pneumoniae after 48 hrs by agar well diffusion method
Escherichia coli = assay: Antibacterial activity against Escherichia coli after 48 hrs by agar well diffusion method
Vibrio cholerae = assay: Antibacterial activity against Vibrio cholerae after 48 hrs by agar well diffusion method

[Br-].[Br-].c1cc2cc(c1)C[n+]1cn(c3ccccc31)Cc1cc3ccccc3nc1Oc1ccc3ccccc3c1-c1c(ccc3ccccc13)Oc1nc3ccccc3cc1Cn1c[n+](c3ccccc31)C2
MIC (Pseudomonas aeruginosa): 25 µg/mL
MIC (Shigella sp.): 10 µg/mL
MIC (Staphylococcus aureus): 15 µg/mL
MIC (Klebsiella pneumoniae): 15 µg/mL
MIC (Escherichia coli): 15 µg/mL
MIC (Vibrio cholerae): 10 µg/mL

[Br-].[Br-].c1cc2nc(c1)C[n+]1cn(c3ccccc31)Cc1cc3ccccc3nc1Oc1ccccc1Oc1nc3ccccc3cc1Cn1c[n+](c3ccccc31)C2
MIC (Pseudomonas aeruginosa): 25 µg/mL
MIC (Shigella sp.): 40 µg/mL
MIC (Staphylococcus aureus): 35 µg/mL
MIC (Klebsiella pneumoniae): 45 µg/mL
MIC (Escherichia coli): 35 µg/mL
MIC (Vibrio cholerae): 30 µg/mL

[Br-].[Br-].c1cc2nc(c1)C[n+]1ccn(c1)Cc1cc3ccccc3nc1Oc1ccc3ccccc3c1-c1c(ccc3ccccc13)Oc1nc3ccccc3cc1Cn1cc[n+](c1)C2
MIC (Pseudomonas aeruginosa): 20 µg/mL
MIC (Shigella sp.): 10 µg/mL
MIC (Staphylococcus aureus): 15 µg/mL
MIC (Klebsiella pneumoniae): 15 µg/mL
MIC (Escherichia coli): 10 µg/mL
MIC (Vibrio cholerae): 10 µg/mL

[Br-].[Br-].c1cc2nc(c1)C[n+]1cn(c3ccccc31)Cc1cc3ccccc3nc1Oc1ccc3ccccc3c1-c1c(ccc3ccccc13)Oc1nc3ccccc3cc1Cn1c[n+](c3ccccc31)C2
MIC (Pseudomonas aeruginosa): 20 µg/mL
MIC (Shigella sp.): 45 µg/mL
MIC (Staphylococcus aureus): 45 µg/mL
MIC (Klebsiella pneumoniae): 30 µg/mL
MIC (Escherichia coli): 30 µg/mL
MIC (Vibrio cholerae): 45 µg/mL

[Br-].[Br-].c1cc2cc(c1)C[n+]1ccn(c1)Cc1cc3ccccc3nc1Oc1ccc3ccccc3c1-c1c(ccc3ccccc13)Oc1nc3ccccc3cc1Cn1cc[n+](c1)C2
MIC (Pseudomonas aeruginosa): 25 µg/mL
MIC (Shigella sp.): 15 µg/mL
MIC (Staphylococcus aureus): 15 µg/mL
MIC (Klebsiella pneumoniae): 10 µg/mL
MIC (Escherichia coli): 20 µg/mL
MIC (Vibrio cholerae): 10 µg/mL

[Br-].[Br-].c1cc2cc(c1)C[n+]1ccn(c1)Cc1cc3ccccc3nc1Oc1ccccc1Oc1nc3ccccc3cc1Cn1cc[n+](c1)C2
MIC (Pseudomonas aeruginosa): 30 µg/mL
MIC (Shigella sp.): 45 µg/mL
MIC (Staphylococcus aureus): 45 µg/mL
MIC (Klebsiella pneumoniae): 40 µg/mL
MIC (Escherichia coli): 30 µg/mL
MIC (Vibrio cholerae): 35 µg/mL

[Br-].[Br-].c1cc2cc(c1)C[n+]1cn(c3ccccc31)Cc1cc3ccccc3nc1Oc1ccccc1Oc1nc3ccccc3cc1Cn1c[n+](c3ccccc31)C2
MIC (Pseudomonas aeruginosa): 40 µg/mL
MIC (Shigella sp.): 55 µg/mL
MIC (Staphylococcus aureus): 45 µg/mL
MIC (Klebsiella pneumoniae): 60 µg/mL
MIC (Escherichia coli): 30 µg/mL
MIC (Vibrio cholerae): 25 µg/mL

[Br-].[Br-].c1cc2nc(c1)C[n+]1ccn(c1)Cc1cc3ccccc3nc1Oc1ccccc1Oc1nc3ccccc3cc1Cn1cc[n+](c1)C2
MIC (Pseudomonas aeruginosa): 25 µg/mL
MIC (Shigella sp.): 25 µg/mL
MIC (Staphylococcus aureus): 30 µg/mL
MIC (Klebsiella pneumoniae): 25 µg/mL
MIC (Escherichia coli): 20 µg/mL
MIC (Vibrio cholerae): 15 µg/mL

CN[C@@H]1[C@H](O[C@H]2[C@H](O[C@H]3[C@H](O)[C@@H](O)[C@H](N=C(N)N)[C@@H](O)[C@@H]3N=C(N)N)O[C@@H](C)[C@]2(O)C=O)O[C@@H](CO)[C@H](O)[C@H]1O [STREPTOMYCIN]
MIC (Pseudomonas aeruginosa): 45 µg/mL (≈ 77.4 µM)
MIC (Shigella sp.): 25 µg/mL (≈ 43 µM)
MIC (Staphylococcus aureus): 25 µg/mL (≈ 43 µM)
MIC (Klebsiella pneumoniae): 25 µg/mL (≈ 43 µM)
MIC (Escherichia coli): 20 µg/mL (≈ 34.4 µM)
MIC (Vibrio cholerae): 25 µg/mL (≈ 43 µM)
